# Laboratory results published in ChEMBL document CHEMBL1201862, “PubChem BioAssay data set” (2004).
# Calls of active or inactive are those of the source.
# What was measured:
# HeLa = assay: HeLa cell cytotoxicity, dose response, cytotoxicity control for MITF activator project, CellTiter-Glo luminescence, cherry-pick samples (AID 540259); type: functional, cell-based; settings: Homo sapiens
# [1] = target: T1, Oxysterols receptor LXR-beta (Homo sapiens, UniProt P55055); type: functional, cell-based;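 note: agonist activity at LXR measured by a cell-based luminescence readout across a dose range, run as a counterscreen for daf-12 agonists; HEK293 cells with Gal4-LXR fusion and GAL4-driven luciferase reporter; potency for activation of Gal4-LXR reporter so compounds are agonists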
# T1 sequence (P55055 whole entry): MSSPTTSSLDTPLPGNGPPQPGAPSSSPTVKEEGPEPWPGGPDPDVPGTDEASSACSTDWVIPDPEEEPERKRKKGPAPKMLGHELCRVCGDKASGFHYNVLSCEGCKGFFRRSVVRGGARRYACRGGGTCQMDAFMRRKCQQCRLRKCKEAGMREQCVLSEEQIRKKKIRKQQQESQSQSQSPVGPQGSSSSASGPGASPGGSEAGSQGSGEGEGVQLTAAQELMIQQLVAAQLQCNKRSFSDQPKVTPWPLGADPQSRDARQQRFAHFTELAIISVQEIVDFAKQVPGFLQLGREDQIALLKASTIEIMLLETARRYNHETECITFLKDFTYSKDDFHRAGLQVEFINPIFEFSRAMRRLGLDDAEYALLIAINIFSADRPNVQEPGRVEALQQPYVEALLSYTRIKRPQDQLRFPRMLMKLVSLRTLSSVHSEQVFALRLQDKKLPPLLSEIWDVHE
# [2] = target: T2, Type-1 angiotensin II receptor (Homo sapiens, UniProt P30556); assay: AT1 receptor antagonists, dose response, selectivity assay for APJ receptor antagonist project, cell-based, uHTS hits (AID 463214); type: functional;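 note: antagonist potency against angiotensin II stimulated AT1 response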
# T2 sequence (P30556 whole entry): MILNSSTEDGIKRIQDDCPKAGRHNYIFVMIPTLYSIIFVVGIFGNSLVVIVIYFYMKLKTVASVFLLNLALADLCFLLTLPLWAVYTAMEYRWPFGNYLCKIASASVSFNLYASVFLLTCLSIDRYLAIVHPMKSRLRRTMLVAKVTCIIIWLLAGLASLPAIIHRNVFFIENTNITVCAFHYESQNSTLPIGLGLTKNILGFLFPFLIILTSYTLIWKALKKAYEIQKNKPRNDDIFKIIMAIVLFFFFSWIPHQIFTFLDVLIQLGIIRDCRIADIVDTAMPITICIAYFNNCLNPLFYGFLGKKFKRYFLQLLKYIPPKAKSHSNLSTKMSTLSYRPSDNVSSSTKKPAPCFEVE
# Beta-galactosidase = Beta-galactosidase (Escherichia coli, UniProt Q8VNN2); assay: PubChem AID 485352; type: functional
# Beta-galactosidase, sequence (Q8VNN2 whole entry): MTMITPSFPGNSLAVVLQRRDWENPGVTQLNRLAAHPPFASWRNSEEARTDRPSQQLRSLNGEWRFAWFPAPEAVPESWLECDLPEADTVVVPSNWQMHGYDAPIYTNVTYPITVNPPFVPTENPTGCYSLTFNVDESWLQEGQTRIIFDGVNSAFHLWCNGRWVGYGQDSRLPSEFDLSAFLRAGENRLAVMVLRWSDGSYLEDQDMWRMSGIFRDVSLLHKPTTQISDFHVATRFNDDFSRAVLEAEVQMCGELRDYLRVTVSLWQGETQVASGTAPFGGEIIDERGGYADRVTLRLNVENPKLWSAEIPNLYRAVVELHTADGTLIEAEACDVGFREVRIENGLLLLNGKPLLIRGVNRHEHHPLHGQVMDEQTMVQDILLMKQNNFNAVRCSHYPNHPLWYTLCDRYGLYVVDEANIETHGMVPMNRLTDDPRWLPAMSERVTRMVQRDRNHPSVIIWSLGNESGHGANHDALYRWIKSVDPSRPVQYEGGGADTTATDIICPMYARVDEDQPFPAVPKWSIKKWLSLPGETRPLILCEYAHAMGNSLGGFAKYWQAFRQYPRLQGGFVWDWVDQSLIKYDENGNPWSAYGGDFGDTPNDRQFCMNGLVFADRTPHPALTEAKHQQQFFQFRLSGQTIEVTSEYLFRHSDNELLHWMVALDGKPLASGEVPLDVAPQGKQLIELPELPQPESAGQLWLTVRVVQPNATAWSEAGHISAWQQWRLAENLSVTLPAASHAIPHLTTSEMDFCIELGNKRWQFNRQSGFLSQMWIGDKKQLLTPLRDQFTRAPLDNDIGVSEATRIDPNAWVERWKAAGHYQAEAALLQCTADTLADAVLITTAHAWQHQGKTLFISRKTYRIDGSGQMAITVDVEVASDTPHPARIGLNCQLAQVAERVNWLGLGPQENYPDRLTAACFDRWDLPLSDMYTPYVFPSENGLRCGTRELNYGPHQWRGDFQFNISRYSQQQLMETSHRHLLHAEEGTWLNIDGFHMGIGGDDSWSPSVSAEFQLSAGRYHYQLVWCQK
# Cytochrome P450 2D6 = Cytochrome P450 2D6 (Homo sapiens, UniProt P10635);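 note: CYP2D6 member of a cytochrome P450 panel assay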
# Cytochrome P450 2D6, sequence (P10635 whole entry, the tested form may be a part): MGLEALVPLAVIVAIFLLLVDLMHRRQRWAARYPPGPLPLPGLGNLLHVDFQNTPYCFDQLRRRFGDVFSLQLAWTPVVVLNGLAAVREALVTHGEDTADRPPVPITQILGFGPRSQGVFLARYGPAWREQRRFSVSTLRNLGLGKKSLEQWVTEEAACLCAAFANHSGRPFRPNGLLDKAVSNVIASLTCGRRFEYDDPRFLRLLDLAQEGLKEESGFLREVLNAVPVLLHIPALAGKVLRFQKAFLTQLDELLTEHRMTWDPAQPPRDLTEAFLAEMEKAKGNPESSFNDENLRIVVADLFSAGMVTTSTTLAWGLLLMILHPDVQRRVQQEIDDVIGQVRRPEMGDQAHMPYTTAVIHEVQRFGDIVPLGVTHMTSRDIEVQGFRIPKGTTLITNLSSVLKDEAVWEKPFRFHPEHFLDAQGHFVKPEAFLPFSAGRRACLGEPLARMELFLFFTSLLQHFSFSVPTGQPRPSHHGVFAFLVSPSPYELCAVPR
# [3] = CEM21 lymphoblast cell cytotoxicity, dose response, cytotoxicity control for viral fusion inhibitor project, CellTiter-Glo luminescence, cherry-picked (AID 652042); type: functional, cell-based;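 note: potency for signal decrease meaning cytotoxicity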
# Cytochrome P450 1A2 = target: T3, Cytochrome P450 1A2 (Homo sapiens, UniProt P05177);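 note: PubChem cytochrome P450 panel assay, CYP1A2 panel member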
# T3 sequence (P05177 whole entry): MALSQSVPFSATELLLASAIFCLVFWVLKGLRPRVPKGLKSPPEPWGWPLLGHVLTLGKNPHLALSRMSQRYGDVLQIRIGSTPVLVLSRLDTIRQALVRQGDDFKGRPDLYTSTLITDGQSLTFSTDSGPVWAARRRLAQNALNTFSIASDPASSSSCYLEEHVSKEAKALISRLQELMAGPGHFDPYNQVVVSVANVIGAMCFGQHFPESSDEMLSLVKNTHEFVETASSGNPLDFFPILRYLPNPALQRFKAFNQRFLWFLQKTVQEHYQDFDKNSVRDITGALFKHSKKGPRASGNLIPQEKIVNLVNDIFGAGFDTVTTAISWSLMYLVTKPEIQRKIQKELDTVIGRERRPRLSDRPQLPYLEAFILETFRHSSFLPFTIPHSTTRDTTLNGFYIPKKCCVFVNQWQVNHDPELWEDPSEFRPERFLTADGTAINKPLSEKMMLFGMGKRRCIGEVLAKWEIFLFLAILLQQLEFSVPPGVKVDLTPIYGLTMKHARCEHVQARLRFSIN
# [4] = inhibitors of HIV Env-driven cell fusion, dose response, cherry-pick (AID 652057); type: functional, cell-based
# [5] = off-target signal loss in HeLa-CEM21 co-culture – HeLa F-luc CTL cells, cherry-picked, counter-screen for HIV-1 Env fusion inhibitor project, dose response (AID 652040); type: functional, cell-based;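 note: potency for signal decrease marking cytotoxic or nonspecific inhibition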
# [6] = ZM109 Env clade C HIV-1 fusion inhibitors, dose response, HeLa effector, CEM target cells, luciferase, cherry-pick (AID 652058); type: functional, cell-based
# [7] = inhibitors of clade B AD8 Env fusion, dose response, cell-based, cherry-pick (AID 652062); type: functional;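 note: luciferase signal from cell-cell fusion driven by HIV-1 clade B AD8 Env; potency is for inhibitors of fusion seen as a drop in luminescence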
# [8] = target: Glucose-6-phosphate 1-dehydrogenase (Homo sapiens, UniProt P11413); assay: human G6PD enzyme inhibitors, dose response, selectivity assay for P. falciparum G6PD inhibitor project, biochemical, fluorescence (AID 504792); type: functional
# Glucose-6-phosphate 1-dehydrogenase, sequence (P11413 whole entry): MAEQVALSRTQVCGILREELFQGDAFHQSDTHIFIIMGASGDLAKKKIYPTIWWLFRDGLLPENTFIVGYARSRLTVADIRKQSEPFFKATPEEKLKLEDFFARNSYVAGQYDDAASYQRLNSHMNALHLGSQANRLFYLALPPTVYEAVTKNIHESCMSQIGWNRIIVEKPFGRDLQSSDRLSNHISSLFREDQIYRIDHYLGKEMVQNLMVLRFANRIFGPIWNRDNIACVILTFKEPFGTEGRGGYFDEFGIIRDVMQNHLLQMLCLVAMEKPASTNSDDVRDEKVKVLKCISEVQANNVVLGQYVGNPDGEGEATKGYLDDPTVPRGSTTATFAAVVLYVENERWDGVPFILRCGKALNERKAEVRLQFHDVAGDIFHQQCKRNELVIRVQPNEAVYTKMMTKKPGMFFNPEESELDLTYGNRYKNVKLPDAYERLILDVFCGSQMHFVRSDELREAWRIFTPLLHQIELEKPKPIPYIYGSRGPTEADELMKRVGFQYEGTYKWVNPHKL
# [9] = target: T4, Zinc finger protein mex-5 (Caenorhabditis elegans, UniProt Q9XUB2); assay: MEX-5/TCR-2 RNA interaction inhibitors, dose response, biochemical, C. elegans, fluorescence polarization (AID 1960)
# T4 sequence (Q9XUB2 whole entry): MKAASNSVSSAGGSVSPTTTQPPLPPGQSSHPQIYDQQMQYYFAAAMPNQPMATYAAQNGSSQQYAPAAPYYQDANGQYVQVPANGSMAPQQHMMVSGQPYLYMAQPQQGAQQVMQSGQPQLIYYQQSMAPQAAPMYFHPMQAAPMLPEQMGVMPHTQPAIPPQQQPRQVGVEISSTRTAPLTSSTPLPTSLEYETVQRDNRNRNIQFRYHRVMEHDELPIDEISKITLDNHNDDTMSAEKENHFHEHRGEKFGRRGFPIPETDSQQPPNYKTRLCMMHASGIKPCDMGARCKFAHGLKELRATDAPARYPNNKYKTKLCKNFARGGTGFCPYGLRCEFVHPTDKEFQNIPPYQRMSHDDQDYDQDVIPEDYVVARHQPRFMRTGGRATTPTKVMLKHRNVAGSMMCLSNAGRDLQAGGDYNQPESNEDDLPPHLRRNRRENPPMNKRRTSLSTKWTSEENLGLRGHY
# [10] = target: T5, Rac GTPase-activating protein 1 (Homo sapiens, UniProt Q9H0H5); assay: MgcRacGAP GTPase-activating activity inhibitors, confirmation, biochemical, ADP Hunter fluorescence, primary and confirmatory (AID 624330); type: functional
# T5 sequence (Q9H0H5 whole entry): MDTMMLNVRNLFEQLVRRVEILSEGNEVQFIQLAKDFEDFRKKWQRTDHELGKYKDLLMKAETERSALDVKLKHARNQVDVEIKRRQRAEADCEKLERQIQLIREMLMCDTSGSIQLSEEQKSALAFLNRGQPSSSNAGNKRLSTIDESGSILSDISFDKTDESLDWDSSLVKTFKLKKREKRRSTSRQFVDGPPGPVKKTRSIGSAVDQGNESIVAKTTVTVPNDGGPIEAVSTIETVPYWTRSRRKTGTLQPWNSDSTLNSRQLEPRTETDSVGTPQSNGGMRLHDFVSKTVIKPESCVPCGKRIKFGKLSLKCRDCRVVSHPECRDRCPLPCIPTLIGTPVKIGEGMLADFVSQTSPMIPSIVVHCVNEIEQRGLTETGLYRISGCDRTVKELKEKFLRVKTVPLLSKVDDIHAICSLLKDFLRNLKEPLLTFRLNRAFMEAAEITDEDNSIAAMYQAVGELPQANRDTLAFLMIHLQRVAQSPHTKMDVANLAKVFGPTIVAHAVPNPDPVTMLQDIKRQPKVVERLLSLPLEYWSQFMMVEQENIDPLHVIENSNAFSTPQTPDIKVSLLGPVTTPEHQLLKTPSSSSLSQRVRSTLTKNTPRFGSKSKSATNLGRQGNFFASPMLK
# [11] = target: T6, RNA-binding protein pos-1 (Caenorhabditis elegans, UniProt G5EF15); assay: inhibitors of POS-1/mex-3 RNA binding, dose response, biochemical, fluorescence polarization (AID 1964);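 note: purified POS-1 fused to maltose binding protein made in E. coli; potency of compounds blocking POS-1 binding to fluorescent RNA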
# T6 sequence (G5EF15 whole entry): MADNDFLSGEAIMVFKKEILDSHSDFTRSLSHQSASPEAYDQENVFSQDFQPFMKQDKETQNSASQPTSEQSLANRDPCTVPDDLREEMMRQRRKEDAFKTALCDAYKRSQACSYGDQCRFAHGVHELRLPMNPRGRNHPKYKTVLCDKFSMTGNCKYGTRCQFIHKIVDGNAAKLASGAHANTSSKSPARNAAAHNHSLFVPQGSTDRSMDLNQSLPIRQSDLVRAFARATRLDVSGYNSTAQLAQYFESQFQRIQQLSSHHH
# Cytochrome P450 2C9 = Cytochrome P450 2C9 (Homo sapiens, UniProt P11712)
# Cytochrome P450 2C9, sequence (P11712 whole entry): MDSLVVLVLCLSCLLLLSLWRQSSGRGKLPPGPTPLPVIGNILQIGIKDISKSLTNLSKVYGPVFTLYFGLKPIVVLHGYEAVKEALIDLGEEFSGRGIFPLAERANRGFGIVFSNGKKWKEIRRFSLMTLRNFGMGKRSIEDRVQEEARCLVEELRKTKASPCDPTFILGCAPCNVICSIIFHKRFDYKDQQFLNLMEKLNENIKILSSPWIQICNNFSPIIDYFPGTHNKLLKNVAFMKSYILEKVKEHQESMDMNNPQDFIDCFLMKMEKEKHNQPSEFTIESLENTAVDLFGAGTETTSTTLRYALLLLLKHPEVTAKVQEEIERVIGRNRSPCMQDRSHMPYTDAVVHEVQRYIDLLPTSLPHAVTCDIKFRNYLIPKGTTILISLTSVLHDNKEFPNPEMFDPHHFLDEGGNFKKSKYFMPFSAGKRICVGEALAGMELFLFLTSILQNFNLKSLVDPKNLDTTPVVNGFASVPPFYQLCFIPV
# Cytochrome P450 3A4 = Cytochrome P450 3A4 (Homo sapiens, UniProt P08684);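 note: CYP3A4 tested as one member of a cytochrome P450 panel screen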
# Cytochrome P450 3A4, sequence (P08684 whole entry): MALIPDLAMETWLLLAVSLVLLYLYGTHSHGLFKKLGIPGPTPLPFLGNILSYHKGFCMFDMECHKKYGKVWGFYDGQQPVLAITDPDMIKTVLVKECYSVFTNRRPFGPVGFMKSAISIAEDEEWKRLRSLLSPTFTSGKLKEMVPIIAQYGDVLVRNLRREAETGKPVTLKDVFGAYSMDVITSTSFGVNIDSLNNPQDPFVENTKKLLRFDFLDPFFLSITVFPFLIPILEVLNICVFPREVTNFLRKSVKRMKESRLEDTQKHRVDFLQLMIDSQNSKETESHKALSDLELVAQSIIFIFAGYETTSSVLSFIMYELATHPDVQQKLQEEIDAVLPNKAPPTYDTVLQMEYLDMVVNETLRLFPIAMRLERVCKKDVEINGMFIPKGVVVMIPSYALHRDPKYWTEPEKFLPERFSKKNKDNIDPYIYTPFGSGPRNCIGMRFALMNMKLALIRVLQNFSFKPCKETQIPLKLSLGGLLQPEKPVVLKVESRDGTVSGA
smiles,measurement,setting,value
Cc1cccc(C(=O)Nc2sc3c(c2C#N)CCCCC3)c1,AC50,HeLa,42.1 µM (active)
Cc1ccn(-c2cccc(-n3ccc(C)n3)n2)n1,EC50,[1],> 67.6 µM (inactive)
same,AC50,HeLa,46.9 µM (active)
Cc1ccnc(NC(=O)c2ccc(S(=O)(=O)N3CCC(C)CC3)cc2)c1,AC50,HeLa,128 µM (active)
COc1ccc(S(=O)(=O)NNc2nc(C)cc(C)n2)cc1Br,IC50,[2],> 40 µM (not active)
same,EC50,Beta-galactosidase,> 40 µM (inactive)
COc1ccc2nc(NC(=O)C3CCN(S(=O)(=O)c4cccc5nsnc45)CC3)sc2c1,AC50,Cytochrome P450 2D6,inconclusive
same,AC50,[3],41.8 µM (active)
same,AC50,Cytochrome P450 1A2,3.16 µM (inconclusive)
same,AC50,[4],65.4 µM (active)
same,AC50,[5],> 70 µM (inactive)
same,AC50,[6],1.9 µM (active)
same,AC50,[7],4 µM (active)
CC1N(C)c2cccc3cccc(c23)N1C,IC50,[8],> 80 µM (inactive)
same,EC50,[9],> 300 µM (inconclusive)
same,IC50,[10],25 µM (active)
same,EC50,[11],> 300 µM (not active)
O=C(OCC(=O)c1ccc([N+](=O)[O-])cc1)/C(=C\c1ccc(Cl)cc1)NC(=O)c1ccccc1,IC50,[8],> 80 µM (inactive)
same,AC50,Cytochrome P450 2C9,35.5 nM (inconclusive)
same,AC50,Cytochrome P450 3A4,22.4 µM (inconclusive)
CC(C)Nc1oc(-c2cccc3ccccc23)nc1C#N,AC50,HeLa,76.7 µM (active)
